Measurements: BigSolDB 2.1

CC(=O)Oc1ccccc1C(=O)Nc1ncc([N+](=O)[O-])s1
solubility (mole fraction)
Details | 273.15 K | 278.15 K | 283.15 K | 288.15 K | 293.15 K | 298.15 K | 303.15 K | 308.15 K | 313.15 K
in 1,4-dioxane | – | – | – | 0.0102 | 0.0131 | 0.0167 | 0.0207 | 0.0254 | 0.0311
in 2-butanone | 0.00334 | 0.00496 | 0.0066 | 0.00859 | 0.0107 | 0.0131 | 0.0158 | 0.0191 | 0.0229
in DMF | 0.0637 | 0.0672 | 0.0711 | 0.0751 | 0.0797 | 0.0846 | 0.0901 | 0.097 | 0.104
in NMP | 0.0878 | 0.09 | 0.0925 | 0.0953 | 0.098 | 0.101 | 0.105 | 0.109 | 0.113
in acetonitrile | 0.00082 | 0.000924 | 0.00103 | 0.00115 | 0.00127 | 0.00141 | 0.00158 | 0.00178 | 0.00201
in ethanol | 0.000117 | 0.000147 | 0.000179 | 0.000211 | 0.000246 | 0.000285 | 0.000331 | 0.000385 | 0.00045
in ethyl acetate | 0.00185 | 0.00206 | 0.00229 | 0.00252 | 0.00276 | 0.003 | 0.0033 | 0.00362 | 0.00399
in isopropanol | 0.000162 | 0.000202 | 0.000243 | 0.000287 | 0.000333 | 0.000383 | 0.000436 | 0.000502 | 0.00058
in methanol | 0.000103 | 0.000126 | 0.00015 | 0.000177 | 0.000202 | 0.00023 | 0.000261 | 0.000298 | 0.000334
in n-butanol | 0.000176 | 0.000214 | 0.000257 | 0.000303 | 0.000354 | 0.000408 | 0.000471 | 0.000541 | 0.000617
in n-propanol | 0.000138 | 0.000173 | 0.000211 | 0.00025 | 0.00029 | 0.000336 | 0.00039 | 0.000453 | 0.000525
in toluene | 7.6e-05 | 9.9e-05 | 0.000123 | 0.000146 | 0.00017 | 0.000197 | 0.000225 | 0.000258 | 0.000291
